2 substances from patent EP2340020B1, “MANGANESE AND COBALT COMPLEXES, THEIR PREPARATION AND USE” (GP Investimenti S.r.l., priority 2008, dated 2010) can be followed below.

For data set [1], the system named is fMLP-stimulated RAW 264.7 macrophages. The experiment in a line: O2^- scavenging in cultures of fMLP-stimulated macrophages, Fe(II)cytC oxidation. Format: cell-based. From the text: The chemotactic peptide fMLP triggers a specific inflammatory activation of the macrophages, which produce high levels of O2^-, that are measurable spectrophotometrically by means of the oxidation of the Fe(II)cytC chromogen.

The test system of a further data set is O2^-. In words: O2^- scavenging in a cell-free system (xanthine/xanthine oxidase), NBT oxidation. Format: biochemical. As to conditions: compound at 10^-5 M; baseline 294±12 sec.; p<0.01. From the text:
(§1) In vitro, the xanthine oxidase enzyme metabolises the xanthine substrate and generates uric acid and O2 as products of the reaction, which can be measured spectrophotometrically by oxidation of the NBT chromogen.

The test system of a further data set is RAW 264.7 macrophages. The experiment in a line: Toxicity: viability of macrophage cultures. Format: cell-based. Here is the method: The viability of the cultures of RAW 264.7 macrophages was measured at various intervals (24, 48, 72 h) after adding increasing concentrations of the compound of Example 2 (10^-7 M- 10^-4 M).
For the next data set, the system named is xanthine oxidase enzyme. In words: Uric acid levels in the xanthine/xanthine oxidase system (check for enzyme inhibition). Format: biochemical.
Chain of xanthine oxidase enzyme (P47989 whole entry, species assumed): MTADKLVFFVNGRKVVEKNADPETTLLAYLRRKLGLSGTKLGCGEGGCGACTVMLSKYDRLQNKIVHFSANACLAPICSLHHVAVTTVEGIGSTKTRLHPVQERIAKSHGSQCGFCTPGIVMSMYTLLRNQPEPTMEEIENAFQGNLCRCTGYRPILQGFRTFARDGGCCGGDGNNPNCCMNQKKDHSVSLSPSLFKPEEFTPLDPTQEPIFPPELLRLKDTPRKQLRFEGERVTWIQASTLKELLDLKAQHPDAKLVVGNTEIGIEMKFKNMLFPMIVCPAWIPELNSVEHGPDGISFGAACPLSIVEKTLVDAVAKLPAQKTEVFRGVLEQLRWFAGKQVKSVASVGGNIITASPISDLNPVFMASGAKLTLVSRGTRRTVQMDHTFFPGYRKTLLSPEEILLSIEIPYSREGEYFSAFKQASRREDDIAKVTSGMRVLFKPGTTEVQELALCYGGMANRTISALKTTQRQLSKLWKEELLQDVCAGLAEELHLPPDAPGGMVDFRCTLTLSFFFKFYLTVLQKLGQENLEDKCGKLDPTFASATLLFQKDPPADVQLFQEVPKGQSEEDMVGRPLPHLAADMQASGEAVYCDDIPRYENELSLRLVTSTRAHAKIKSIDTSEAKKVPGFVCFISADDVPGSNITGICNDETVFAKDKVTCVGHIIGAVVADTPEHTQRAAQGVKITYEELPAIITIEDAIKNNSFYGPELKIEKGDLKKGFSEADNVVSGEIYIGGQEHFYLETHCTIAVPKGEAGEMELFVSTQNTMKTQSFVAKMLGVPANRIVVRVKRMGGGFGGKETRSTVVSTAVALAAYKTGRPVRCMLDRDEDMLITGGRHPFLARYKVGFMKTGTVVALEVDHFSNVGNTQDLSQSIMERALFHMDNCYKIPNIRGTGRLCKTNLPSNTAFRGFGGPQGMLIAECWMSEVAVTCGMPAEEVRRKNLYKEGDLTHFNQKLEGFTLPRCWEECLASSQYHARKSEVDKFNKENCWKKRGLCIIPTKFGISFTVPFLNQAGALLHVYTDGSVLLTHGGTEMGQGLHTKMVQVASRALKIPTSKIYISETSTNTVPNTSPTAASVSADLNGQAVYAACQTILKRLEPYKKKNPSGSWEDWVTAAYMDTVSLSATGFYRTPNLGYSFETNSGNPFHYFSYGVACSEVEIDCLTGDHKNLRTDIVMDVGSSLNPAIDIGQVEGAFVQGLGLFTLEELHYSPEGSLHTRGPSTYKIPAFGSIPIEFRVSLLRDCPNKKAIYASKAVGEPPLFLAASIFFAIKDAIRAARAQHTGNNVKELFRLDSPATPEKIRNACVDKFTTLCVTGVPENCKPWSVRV
Text: as §1

The test system of data set [2] is rat aorta smooth muscle cells (RASM). The experiment in a line: Protection from oxidative stress: MDA levels, O2^- generated by xanthine oxidase/xanthine. As to conditions: xanthine oxidase/xanthine system; comparable with, or even greater than SOD. Format: cell-based. As for the experimental part: (§2) The primary targets of the cytotoxic action of ROS are the membrane lipids, which are peroxidised with the formation of malondialdehyde (MDA). This can be measured spectrophotometrically using the chromogen that is generated from the reaction of MDA with thiobarbituric acid. This measurement is consequently a reliable indicator of ROS-induced cell damage.
(§3) Cultures of rat aorta smooth muscle cells (RASM) were prepared in a medium in which O2^- was generated both by means of the xanthine oxidase/xanthine enzymatic system and by RAW 264.7 macrophages stimulation with fMLP (see the two diagrams shown below, respectively).

The test system is the same in data set [3]. In words: Protection from oxidative stress: MDA levels, O2^- generated by fMLP-stimulated RAW 264.7 macrophages. Format: cell-based. As to conditions: RAW 264.7 macrophages stimulated with fMLP; comparable with, or even greater than SOD. Here is the method: as §2, §3

Turning to MnSO4 [reference compound], in data set [1] (Figure 2), the “effectiveness in reducing O2^- levels generated by fMLP-activated macrophages” value is on record as “entirely ineffective”.
For “Mn(4,10-dimethyl-1,4,7,10-tetraazacyclododecane-1,7-diacetate) 2H2O) [Example 2]”, the “time taken to oxidise 50% of the NBT” value with O2^- turned out to be 390 ± 16 s. Also, in the data set with RAW 264.7 macrophages (10^-7 M-10^-4 M, 24, 48, 72 h, effect only after 72 hours and at 10^-5-10^-4 M), the “cytotoxicity (viability of the cultures)” value was “mildly cytotoxic only after incubation times of 72 hours and at the greatest concentrations”. Also, the “cell toxicity at active concentrations” value with RAW 264.7 macrophages (concentrations of the order of 0.1 milligrams/litre) is “no cell toxicity”. Further, in the data set on xanthine oxidase enzyme, the “levels of uric acid” value is given as “does not reduce the levels of uric acid”. In addition, the “levels of MDA in the RASM cells” value in data set [2] and in data set [3] was “significantly reduced” in each case. In addition, the “levels of oxidised Fe(II)cytC” value in data set [1] (10^-9-10^-6 M) was “dose-dependent, significant reduction”. For the same substance, the “activity when pre-incubated and then removed from the cell cultures before adding the activating stimulus” value in data set [1] (pre-incubation, removal before fMLP) is “remains active”. The IC50 in data set [1] (reduction of O2^- generated by fMLP-activated macrophages, read-out: 50% inhibiting concentration (IC50%)) stood at 60 nM.
